Data on twelve compounds can be found in PMC5764437, “Discovery of novel, orally bioavailable, antileishmanial compounds using phenotypic screening” (PLoS Neglected Tropical Diseases, 2017).

A word on the EC50: it is the concentration needed to bring the measured effect to its halfway point. By fraction unbound is commonly meant free concentration divided by total concentration.

Where a name gives a salt, the structure may show the parent alone. Read-outs that look alike come from different tables or passages of the source. Starred links: 1 amine or outer side, 2 acyl side, 3 side chain; linkers in the order of their positions; H or OH if unused. Positions of bridges follow the written chain, without caps; N, C: chain ends. Non-standard residues stand in square brackets, D forms with d. Residues, ends and D or L forms follow the SMILES beside them. Chains are numbered I, II in the order given. Actinocin(9to1) = Cc1c2oc3c(C)ccc(C(=O)[*:1])c3nc-2c(C(=O)[*:2])c(N)c1=O; NMeV = CN[C@H](C(=O)O)C(C)C; Sar = CNCC(=O)O

Data set [1] relates to L. mexicana promastigotes. The data set can be described thus: High-throughput assay for growth inhibition of promastigotes (SYBR Green I). The data set is classed as cell-based. The method, then:
Into each well of 384-well microplates (black polystyrene, clear bottom, tissue culture treated, Corning), 15 μl of medium (DME-L [41] plus 100 μM xanthine and 10% heat inactivated fetal calf serum) was dispensed with a liquid dispenser (Matrix Wellmate, Thermo Scientific). Stock compounds, dissolved in DMSO at a fixed concentration of 10 mM, were pin-transferred (V&P Scientific) into the microplate to the desired final concentration using an automated robot arm. To each well of the plates, 15 μl of L. mexicana promastigotes (strain MNYZ/BZ/62/M379, 2 x 10^6/mL) was added with the Wellmate dispenser. Microplates were incubated (Liconic) at 28°C and 5% CO2 for 72 h. After incubation, 10 μl of lysis/dye solution (5X SYBR Green I, 5% Triton X-100 in PBS) was added to each well. Plates were shaken at 1000 rpm, incubated at room temperature for 20 min, and fluorescence signal measured (excitation 485 nm, emission 535 nm) with the Envision plate reader (PerkinElmer).
The initial promastigote screen was performed with the St. Jude Chemical Biology & Therapeutics (CBT) library consisting of 596,414 compounds. Library compounds were filtered by several computational methods to remove those likely to have undesirable physical or biological properties and biased towards oral bioavailability. In this way we focused the collection on compounds most likely to be effective in cellular models of activity, without structural features that would pose a challenge to drug development. In the primary screen, compounds were applied to promastigotes of L. mexicana at a fixed concentration of 10 μM, and parasite proliferation was monitored, following a 72 h incubation, by quantifying total DNA content after lysis using the nucleic acid binding dye SYBR Green I [45].
To confirm the activity of the primary hits and improve confidence that they would be reasonable starting points for drug development, a variety of secondary screens and analyses were employed (Fig 1A). […]. In parallel, mammalian cell growth inhibition was determined using in vitro proliferation assays with normal human fibroblasts (BJ cells). […]. To further triage the hits, we carried out a chemical structure analysis for the 2,703 primary hit compounds utilizing topology mapping and clustering methodology. We identified a wide range of chemotypes, including several scaffolds with potential structure-activity relationships (SARs), based on their dose response activity (Fig 2). Validated hits were then culled by eliminating scaffolds with less favorable drug development properties such as charged planar structures, reactive electrophilic warheads, known pan-assay interference motifs (PAINS), and compounds displaying gross rule of five noncompliance. Finally, we prioritized scaffolds with the possibility of facile chemical modification to generate a substantial number of structural analogs for future SAR and structure-property relationship (SPR) studies.

Data set [2] is described as follows: Mouse plasma protein binding assay (Rapid Equilibrium Dialysis). Format: in vitro ADME. The settings on record: mouse, mouse plasma, pH 7.4; Conc. 4 μM. The method, then:
A Rapid Equilibrium Dialysis (RED) Plate (Thermo Scientific, catalog #, PI-90007) was used to determine the percentage of compound binding to mouse plasma proteins (Thermo Scientific, catalog #, 50642085). The positive control for this experiment was propranolol HCl (295.807 g/mol) and the internal standard was warfarin in methanol (2 μM). 10 mM stocks of compound in DMSO were diluted with DMSO and acetonitrile to three different intermediate concentrations: high (2 mM), medium (0.4 mM) and low (0.08 mM) concentration in DMSO:acetonitrile (1:4, v:v). 10 mM stock of propranolol in DMSO were diluted to 0.4 mM concentration in DMSO:acetonitrile (1:4 v:v).
In 10 Eppendorf tubes, the control (10 μL) or each of three compound dilutions (10 μL) were each added to separate aliquots of 990 μL mouse plasma. Potassium phosphate buffer (500 μL, 0.1 M, pH 7.4, 37 °C) was placed in every white well of the RED plate and each plasma/compound mixture was added to each of 3 RED wells (300 μL). The RED plate holds triplicate samples of one control (final concentration […]) and one compound (final concentrations: 20 μM, 4 μM, […]). The RED Plate was sealed and incubated at 37 °C shaking at 250 rpm for 4 hours. After incubation, aliquots (50 μL) from each well in the RED plate were transferred to an assay plate (pION Inc., MA, #110323). In order to create a uniform matrix in every well of the assay plate, plasma (50 μL) was added to each of the wells that already contained buffer and potassium phosphate buffer (50 μL) was added to each of the wells that already contained plasma/compound. Pre-cooled internal standard (300 μL) was added to the assay plate to quench the reaction. The quenched plate was then centrifuged (5810R, Eppendorf, Westbury, NY) at 3000 rpm for 20 minutes.
The percentage of free compound [1] and bound compound [2] was calculated usng the AUC ratio of compound to warfarin from the SIR spectra. For reporting data, % Free = Concentration buffer/Concentration plasma *100 %, and % Bound = 100% - % Free.
A general note: In equilibrium dialysis free small molecules cross a membrane that holds back macromolecules.

Another data set has as its system J774A.1 macrophages. The data set can be described thus: Cytotoxicity to J774A.1 macrophages (dose-response). Conditions: for EC50: Mus musculus. Format: cell-based. As to the method: Cytotoxicity of compounds to J774.A1 macrophages was determined by dose-response curves as described previously. In the absence of growth inhibitors or DMSO, the macrophages increased in number ~6-fold over 96 h in Minimum Essential Medium, employed for both macrophage infections and the toxicity assays.

For data set [3], the system named is bloodstream form Lister 427 T. brucei. The data set can be described thus: Growth inhibition of T. brucei bloodstream forms (SYBR Green I). The data set is classed as cell-based. The settings on record: Trypanosoma brucei, read-out: T. brucei EC50. The method, then: (§1) L. mexicana (MNYZ/BZ/62/M379) or L. donovani (LdBob strain) parasites expressing the Renilla luciferase gene from a rRNA gene locus were used to infect J774A.1 macrophages. Growth of intracellular amastigotes was measured using a luminescence assay, as detailed previously. The growth inhibitor activities of compounds were tested against bloodstream form Lister 427 T. brucei in 96-well plates containing 1 X 10^5 parasites per well in 0.2 ml HMI-11 medium (Gibco/Thermo Fisher). Compounds (2 μl volumes in DMSO) were added to the parasites using serial 3-fold dilutions to cover a range of concentrations from about 10 μM to 1 nM. After 48 h incubation at 37°C under a humidified 5% CO2 atmosphere, 10 μl of 10% Triton X-100 and 100 X stock SYBR Green I (Sigma-Aldrich) in PBS was added and florescence measured (excitation 497 nm; emission 520 nm) after 1 h incubation in the dark using a Spectra Max Gemini XPS fluorimeter (Molecular Devices). Data were log transformed and EC50 values were determined using GraphPad Prism 6 (GraphPad Software). In the absence of growth inhibiting compounds, the parasites grew from an initial density of 5 X 10^5 cells/mL to ~3 X 10^6 cells/mL.

Data set [4] concerns L. donovani intracellular amastigotes. The data set can be described thus: Growth inhibition of intracellular amastigotes in J774A.1 macrophages (Renilla luciferase luminescence). Format: cell-based. Conditions: Leishmania donovani. The method, then: as §1
Data set [5] deals with L. mexicana intracellular amastigotes. The description is as above. Format: cell-based. Conditions: Leishmania mexicana. The method, then:
as §1
[…]. These were chosen as candidates for further study. From these 230 compounds, we were able to repurchase 113 from commercial vendors. These compounds were characterized for purity by ultra-performance liquid chromatography using ultraviolet spectroscopy and evaporative light scattering detection and identity by mass spectrometry. All validated compounds were profiled for activity against intracellular amastigotes, the disease-causing stage of the life cycle. Intracellular amastigote activity was determined using a strain of L. mexicana in which the Renilla luciferase gene was integrated into the rRNA locus, allowing robust expression for measuring amastigote growth within cultured macrophages. All 113 compounds were applied at 1 μM concentration for 96 h to J774A.1 macrophages infected with L. mexicana luciferase-expressing parasites. […].
Next, we generated dose-response curves for these 55 compounds against intracellular amastigotes and independently against J774A.1 macrophages to establish the relative potency of each compound against the pathogen and its host cell. […]. The nine remaining compounds, each representing a unique chemical scaffold (compounds 1–9, Fig 3), were designated top hits (Fig 1).

[6] abbreviates: Leishmania mexicana, bracketed references point to earlier reports of antileishmanial activity, read-out: EC50 of known inhibitors identified by the HTS.
[7] abbreviates: J774.A1, host macrophage, tested up to 10 μM, mean ± standard deviation, n = 2, read-out: J774A.1 EC50.
Setting [8] is: bloodstream form, mean ± standard deviation, n = 2.
[9] abbreviates: J774.A1, intracellular amastigotes in J774A.1 macrophages, mean ± standard deviation, n = 2, read-out: L. donovani EC50.
Where [10] appears, read: J774.A1, intracellular amastigotes in J774A.1 macrophages, mean ± standard deviation, n = 2, read-out: L. mexicana EC50.
Setting [11] is: bracketed references point to earlier reports of antileishmanial activity, read-out: EC50 of known inhibitors identified by the HTS.

In the case of `CCN(CC)C(=S)SSC(=S)N(CC)CC` [disulfiram], in data set [1] (setting [6]), the EC50 was found to be 500 nM.
The same measure, in the same setting: the same measure for `CN(C)C(=S)SSC(=S)N(C)C` [thiram]: 1770 nM.
On to `CC(C)NCC(O)COc1cccc2ccccc12` (centres unmarked) [Propranolol HCl, reference compound], for which the fraction unbound at 4 h, 4 μM in data set [2] was 0.284.
Regarding `CCCCCCCCn1c2c(c(=N)c3ccccc31)CCC2` [Compound 7], the EC50 in the data set on J774A.1 macrophages (setting [7]) amounted to 700 ± 300 nM; in data set [3] (setting [8]), 460 ± 400 nM; in data set [4] (setting [9]) it was 11 ± 8 nM; in data set [5] (setting [10]), 7 ± 6 nM.
For `CC[C@H]1CN2CCc3cc(OC)c(OC)cc3[C@@H]2C[C@@H]1C[C@H]1NCCc2cc(O)c(OC)cc21` [Compound 1, cephaeline], the EC50 in the data set with J774A.1 macrophages (J774.A1, read-out: J774A.1 EC50) is 920 ± 900 nM; in data set [3] it was 800 ± 200 nM; in data set [4] (J774.A1, read-out: L. donovani EC50), 2 ± 0.5 nM; in data set [5] (J774.A1, read-out: L. mexicana EC50), 0.6 ± 0.2 nM.
With `Cc1c2oc3c(C)ccc(C(=O)N[C@@H]4C(=O)N[C@H](C(C)C)C(=O)N5CCC[C@H]5C(=O)N(C)CC(=O)N(C)[C@@H](C(C)C)C(=O)O[C@@H]4C)c3nc-2c(C(=O)N[C@@H]2C(=O)N[C@H](C(C)C)C(=O)N3CCC[C@H]3C(=O)N(C)CC(=O)N(C)[C@@H](C(C)C)C(=O)O[C@@H]2C)c(N)c1=O` [actinomycin D] (I: T[dV]P[Sar][NMeV] / II: T[dV]P[Sar][NMeV]; ester I:1-I:C, II:1-II:C; linker I:N-II:N via Actinocin(9to1)), the concentration giving a half-maximal response (EC50) in data set [1] (setting [6]) was 360 nM.
Regarding avicin, the 50% effective concentration (EC50) in data set [1] (setting [11]) was 1500 nM.
For `N=C(N)c1ccc(OCCCCCOc2ccc(C(=N)N)cc2)cc1` [pentamidine], the “Inhibition of proliferation (HTS positive control)” value in data set [1] (72 h, primary screen conditions) was 100%. For the same compound, the EC50 in data set [1] (Leishmania mexicana, 72 h, median over HTS plates, interquartile range 1.7–3.1, read-out: EC50 of the control per screening plate (median)) came out at 2300 nM.
Take `CN(C)c1ccc(C(=C2C=CC(=[N+](C)C)C=C2)c2ccc(N(C)C)cc2)cc1` [crystal violet]: in data set [1] (setting [6]), the EC50 worked out at 290 nM.
Regarding `CCN(CC)c1ccc(C2N(C)c3ccccc3N2C)cc1` [Compound 6], the EC50 with J774A.1 macrophages (setting [7]) worked out at 3500 ± 700 nM; in data set [3] (setting [8]), 2000 ± 400 nM; in data set [4] (setting [9]), 6 ± 7 nM; in data set [5] (setting [10]), 5.5 ± 4.9 nM.
For the compound `Fc1ccccc1Nc1nc(NCc2ccccc2)c2ccccc2n1` [Compound 2], the EC50 with J774A.1 macrophages (setting [7]) is more than 10000 nM; in data set [3] (setting [8]) it was 2000 nM; in data set [4] (setting [9]) it was 130 ± 20 nM; in data set [5] (setting [10]) it was 44 ± 23 nM. Further, the “Reduction in viability / inhibition of host macrophage J774A.1 in dose-response studies” value in the data set on J774A.1 macrophages (up to 10 μM) is listed as “no reduction in viability”.
For `COc1ccc(C[C@H]2NC[C@H](O)[C@H]2OC(C)=O)cc1` [anisomycin], the EC50 in data set [1] (setting [11]) stood at 580 nM.
